The test system of data set [1] is rat. To be noted: Prenatal developmental toxicity study, sprague dawley, Oral, Gavage/Intubation, dose end: 17 GD.
Data set [2] relates to rat. To be noted: Subchronic oral toxicity in rodents, sprague dawley, Feed, dose end: 3 month, group: systemic.
The subject of data set [3] is dog. To be noted: Subchronic oral toxicity in nonrodent, beagle, Capsule, dose end: 90 day, group: systemic.
Data set [4] concerns mouse. To be noted: Subchronic oral toxicity in rodents, cd1, Feed, dose end: 13 week, group: systemic, systemic / organ weight / liver / absolute + systemic / organ weight / liver / relative to body weight + systemic / pathology microscopic / ….
Data set [5] deals with rat. To be noted: Combined chronic toxicity/carcinogenicity, fischer, Oral, Feed, dose end: 24 month, group: systemic.
In data set [6] the test system is dog. To be noted: Chronic toxicity; beagle; Oral; Feed; dose end: 12 month; group: systemic; systemic / clinical chemistry / alkaline phosphatase (alp/alk) / alkaline phosphatase (alp/alk) + systemic / organ weight / liver / absolute….
For data set [7], the system named is mouse. To be noted: Carcinogenicity, cd1, Oral, Feed, dose end: 80 week, group: systemic.
Data set [8] has as its system rat. To be noted: Subchronic oral toxicity in rodents, fischer, Feed, dose end: 90 day, group: systemic.
The test system of data set [9] is rat. To be noted: Subchronic dermal toxicity, fischer, Topical, dose end: 13 week, group: systemic, systemic / organ weight / kidney / relative to body weight.
For data set [10], the system named is rat. To be noted: Subchronic oral toxicity in rodents, fischer, Feed, dose end: 13 week.
In data set [11] the test system is mouse. To be noted: Subchronic dermal toxicity, b6c3f1, Topical, dose end: 13 week, group: systemic, systemic / pathology gross / sperm measure / sperm count.
Data set [12] relates to mouse. To be noted: Subchronic oral toxicity in rodents, b6c3f1, Feed, dose end: 13 week, group: systemic.
For data set [13], the system named is mouse. To be noted: Carcinogenicity, cd1, Oral, Water, dose end: 104 week, group: systemic.
For data set [14], the system named is rat. To be noted: Combined chronic toxicity/carcinogenicity, wistar, Oral, Water, dose end: 104 week, group: systemic.
For data set [15], the system named is dog. To be noted: Chronic toxicity, beagle, Oral, Capsule, dose end: 52 week, group: systemic.
The subject of data set [16] is rat. To be noted: Prenatal developmental toxicity study, wistar, Oral, Gavage/Intubation, dose end: 17 GD.
For data set [17], the system named is dog. To be noted: Subchronic oral toxicity in nonrodent, beagle, Capsule, dose end: 90 day, group: systemic, systemic / clinical chemistry / alanine aminotransferase (alt/sgpt) / alanine aminotransferase (alt/sgpt) + systemic / clinical chemistry / ….
The test system of a further data set is rabbit. To be noted: Prenatal developmental toxicity study, new zealand white, Oral, Gavage/Intubation, dose end: 20 GD.
Where [18] appears, read: group: developmental, developmental / developmental malformation / bone / full supernumerary + developmental / developmental malformation / bone / cervical + ….
The mark [19] stands for this setting: group: maternal, systemic / in life observation / body weight / body weight gain + systemic / in life observation / food consumption / food consumption.
The mark [20] stands for this setting: group: maternal, systemic / in life observation / body weight / body weight gain + systemic / in life observation / food consumption / food consumption + ….
Setting [21] is: systemic / hematology / hematocrit (hct) / hematocrit (hct) + systemic / hematology / hemoglobin (hgb) / hemoglobin (hgb).
Where [22] appears, read: systemic / hematology / hematocrit (hct) / hematocrit (hct) + systemic / hematology / hemoglobin (hgb) / hemoglobin (hgb) + systemic / in ….
Setting [23] is: systemic / organ weight / liver / absolute + systemic / organ weight / liver / relative to body weight.
[24] abbreviates: systemic / in life observation / body weight / body weight gain + systemic / organ weight / kidney / relative to body weight.
Setting [25] is: systemic / in life observation / body weight / body weight gain + systemic / organ weight / kidney / relative to body weight + systemic / ….
[26] abbreviates: systemic / in life observation / body weight / body weight + systemic / in life observation / body weight / body weight gain + systemic / ….
[27] abbreviates: systemic / in life observation / body weight / body weight gain + systemic / pathology microscopic / liver / hypertrophy + systemic / in ….
Setting [28] is: systemic / in life observation / body weight / body weight gain + systemic / pathology microscopic / liver / hypertrophy + systemic / organ ….
The mark [29] stands for this setting: group: maternal, reproductive / reproductive performance / estrous cycle / length.
[30] abbreviates: group: systemic, systemic / clinical chemistry / gamma glutamyl transferase (ggt) / gamma glutamyl transferase (ggt) + systemic / in life observation / body ….
[31] abbreviates: group: systemic, systemic / organ weight / liver / absolute + systemic / organ weight / liver / relative to body weight.
[32] abbreviates: systemic / organ weight / liver / relative to body weight.
Setting [33] is: systemic / in life observation / food consumption / food consumption + systemic / in life observation / water consumption / water ….
Setting [34] is: systemic / pathology microscopic / liver / sarcoma + systemic / pathology gross / full gross necropsy / sarcoma.
Setting [35] is: systemic / clinical chemistry / cholesterol / cholesterol + systemic / clinical chemistry / triglycerides / triglycerides + systemic / ….
Setting [36] is: systemic / clinical chemistry / alanine aminotransferase (alt/sgpt) / alanine aminotransferase (alt/sgpt) + systemic / pathology microscopic….
The mark [37] stands for this setting: systemic / clinical chemistry / aspartate aminotransferase (ast/sgot) / aspartate aminotransferase (ast/sgot) + systemic / hematology / ….
[38] abbreviates: group: developmental, developmental / developmental malformation / bone / unossified + developmental / developmental malformation / other / other + systemic / in ….
[39] abbreviates: group: developmental, developmental / developmental malformation / bone / enlarge suture + developmental / developmental malformation / bone / incomplete ….

Molecules are shown by their SMILES.

As for `CC(C)(C)C(O)/C(=C\c1ccc(Cl)cc1Cl)n1cncn1` (stereo not drawn) [Diniconazole], the lowest-observed-adverse-effect level (LOAEL) amounted to 20 mg/kg/day in the data set with rat [1] (group: developmental, developmental / developmental malformation / bone / full supernumerary + developmental / developmental malformation / bone / cervical); 20 mg/kg/day in the data set on rat [1] (setting [19]); 0.71 mg/kg/day in the data set with rat [2] (setting [21]); 200 mg/kg/day in the data set with dog [3] (systemic / in life observation / food consumption / food efficiency). Further, the LEL turned out to be 20 mg/kg/day in the data set on rat [1] (setting [18]), 20 mg/kg/day in the data set with rat [1] (setting [19]), 0.71 mg/kg/day with rat [2] (setting [22]) and 40 mg/kg/day with dog [3] (setting [23]). The NEL in the data set on rat [1] (setting [18]) is 5 mg/kg/day; with rat [1] (setting [20]), 5 mg/kg/day; in the data set on rat [2] (setting [22]), less than 0.71 mg/kg/day; in the data set on dog [3] (setting [23]), less than 40 mg/kg/day. Further, the no-observed-adverse-effect level (NOAEL) with rat [1] (setting [18]) was 5 mg/kg/day; in the data set with rat [1] (setting [20]), 5 mg/kg/day; in the data set on rat [2] (setting [21]), less than 0.71 mg/kg/day; in the data set on dog [3] (systemic / in life observation / food consumption / food efficiency + systemic / clinical chemistry / alkaline phosphatase (alp/alk) / …) it was 40 mg/kg/day.

Consider `Fc1ccc(Oc2ccnc3cc(Cl)cc(Cl)c23)cc1` [Quinoxyfen], for which the LEL came to 500 mg/kg/day with mouse [4]; 80 mg/kg/day with rat [5] (setting [25]); 200 mg/kg/day with dog [6]; 250 mg/kg/day in the data set on mouse [7] (setting [26]); 100 mg/kg/day with rat [8] (setting [28]). Also, the lowest observed adverse effect level (LOAEL) in the data set with mouse [4] stood at 500 mg/kg/day; in the data set on rat [5] (setting [25]), 80 mg/kg/day; in the data set with dog [6], 200 mg/kg/day; in the data set on mouse [7] (systemic / in life observation / body weight / body weight + systemic / in life observation / body weight / body weight gain) it was 250 mg/kg/day; in the data set on rat [8] (setting [28]) it was 100 mg/kg/day. Also, the NEL was found to be 100 mg/kg/day in the data set on mouse [4]; 20 mg/kg/day in the data set on rat [5] (setting [24]); 20 mg/kg/day in the data set with dog [6]; 80 mg/kg/day in the data set with mouse [7] (setting [26]); 10 mg/kg/day with rat [8] (setting [27]). Besides, the NOAEL stood at 100 mg/kg/day in the data set on mouse [4]; 20 mg/kg/day in the data set on rat [5] (setting [24]); 20 mg/kg/day in the data set on dog [6]; 80 mg/kg/day with mouse [7] (setting [26]); 10 mg/kg/day in the data set with rat [8] (setting [27]).

As to `COc1ccc(C(=O)c2ccccc2)c(O)c1` [2-Hydroxy-4-methoxybenzophenone], the LEL in the data set on rat [9] amounted to 25 mg/kg/day; in the data set on rat [10] (setting [29]) it was 3260 mg/kg/day; in the data set on rat [10] (setting [31]), 196 mg/kg/day; in the data set with mouse [11], 22.5 mg/kg/day; in the data set with mouse [12] (setting [32]) it was 629 mg/kg/day. For the same compound, the LOAEL was more than 200 mg/kg/day with rat [9]; more than 3260 mg/kg/day in the data set on rat [10] (setting [29]); more than 3260 mg/kg/day in the data set on rat [10] (setting [30]); more than 364 mg/kg/day in the data set with mouse [11]; more than 13900 mg/kg/day with mouse [12] (setting [26]). In addition, the NEL with rat [9] was 12.5 mg/kg/day; with rat [10] (setting [29]), 1600 mg/kg/day; in the data set on rat [10] (setting [31]), less than 196 mg/kg/day; in the data set with mouse [11], less than 22.5 mg/kg/day; in the data set with mouse [12] (setting [32]) it was less than 629 mg/kg/day. For the same compound, the no-observed-adverse-effect level (NOAEL) in the data set with rat [9] was not below 200 mg/kg/day; in the data set with rat [10] (setting [29]) it was not below 3260 mg/kg/day; in the data set on rat [10] (setting [30]) it was not below 3260 mg/kg/day; with mouse [11], not below 364 mg/kg/day; in the data set with mouse [12] (setting [26]) it was not below 13900 mg/kg/day.

As for `CNC(=S)[S-].[Na+]` [Metam-sodium], the LOAEL was found to be 6.5 mg/kg/day in the data set with mouse [13] (setting [33]); 12 mg/kg/day in the data set on rat [14] (setting [35]); 1 mg/kg/day in the data set with dog [15] (setting [36]); 20 mg/kg/day in the data set with rat [16] (group: developmental, developmental / developmental malformation / bone / unossified + developmental / developmental malformation / other / other); 20 mg/kg/day in the data set on rat [16] (setting [19]); 1 mg/kg/day in the data set with dog [17]. Besides, the LOAEL with rabbit (setting [39]) and with rabbit (setting [20]) was 20 mg/kg/day throughout. The no-observed-adverse-effect level (NOAEL) was 1.6 mg/kg/day in the data set with mouse [13] (setting [33]); 3.9 mg/kg/day in the data set with rat [14] (setting [35]); 0.1 mg/kg/day in the data set on dog [15] (setting [36]); 5 mg/kg/day with rat [16] (setting [38]); 5 mg/kg/day in the data set on rat [16] (setting [20]); less than 1 mg/kg/day in the data set on dog [17]. Moreover, the no observed adverse effect level (NOAEL) with rabbit (setting [39]) and in the data set with rabbit (setting [20]) was 5 mg/kg/day throughout. In addition, the LEL in the data set on mouse [13] (setting [34]) came to 1.6 mg/kg/day; in the data set with rat [14] (systemic / in life observation / body weight / body weight gain), 6.2 mg/kg/day; in the data set on dog [15] (setting [37]) it was 0.05 mg/kg/day; in the data set on rat [16] (setting [38]), 20 mg/kg/day; with rat [16] (setting [20]) it was 20 mg/kg/day; in the data set with dog [17] it was 1 mg/kg/day. For the same compound, the LEL with rabbit (setting [39]) and with rabbit (setting [20]) was 20 mg/kg/day each time. Besides, the NEL in the data set on mouse [13] (setting [34]) is less than 1.6 mg/kg/day; with rat [14] (systemic / in life observation / body weight / body weight gain + systemic / clinical chemistry / cholesterol / cholesterol + systemic / …), 2.3 mg/kg/day; in the data set on dog [15] (setting [37]) it was less than 0.05 mg/kg/day; in the data set on rat [16] (setting [38]), 5 mg/kg/day; in the data set with rat [16] (setting [20]), 5 mg/kg/day; in the data set on dog [17], less than 1 mg/kg/day. The NEL in the data set on rabbit (setting [39]) and in the data set with rabbit (setting [20]) was 5 mg/kg/day each time.

Broadly, the LOAEL is the lowest tested level that showed an adverse finding. The term NOAEL denotes the highest tested level that showed no adverse finding.

For the origin of these results see EPA's ToxRefDB 2.
